Numbers after ± are expanded uncertainties.
Experiment: xn = mol fraction of the nth substance listed
Conditions: 100 kPa, Liquid; for mass density: Vibrating tube method; for viscosity: Concentric cylinders viscometry

CCCCCCn1cc[n+](C)c1.O=[N+]([O-])[O-] [1-hexyl-3-methylimidazolium nitrate] + CCCCCCCO
Conditions	mass density, 308.15 K [kg/m3]	mass density, 313.15 K [kg/m3]	mass density, 318.15 K [kg/m3]	mass density, 323.15 K [kg/m3]	viscosity, 313.15 K [mPa·s]	viscosity, 318.15 K [mPa·s]	viscosity, 323.15 K [mPa·s]
x1 = 0.0812	846.5 ± 1.3	842.8 ± 1.3	839.1 ± 1.3	835.3 ± 1.3	5.43 ± 0.44	4.59 ± 0.37	3.84 ± 0.31
x1 = 0.1608	878.3 ± 1.3	874.6 ± 1.3	870.8 ± 1.3	867 ± 1.3	7.36 ± 0.59	6.17 ± 0.5	5.01 ± 0.4
x1 = 0.2395	907.7 ± 1.2	903.9 ± 1.2	900.2 ± 1.2	896.4 ± 1.2	9.99 ± 0.8	7.85 ± 0.63	6.43 ± 0.52
x1 = 0.3493	945.5 ± 1.2	941.7 ± 1.2	937.9 ± 1.2	934.2 ± 1.2	14.27 ± 1.1	10.99 ± 0.88	8.89 ± 0.72
x1 = 0.4392	973.9 ± 1.2	970.1 ± 1.2	966.4 ± 1.2	962.6 ± 1.2	19.02 ± 1.5	14.45 ± 1.2	11.59 ± 0.93
x1 = 0.5749	1013 ± 1.2	1009.3 ± 1.2	1005.6 ± 1.2	1001.9 ± 1.2	31.62 ± 2.6	22.7 ± 1.8	17.99 ± 1.4
x1 = 0.6491	1032.6 ± 1.2	1028.9 ± 1.2	1025.4 ± 1.2	1021.8 ± 1.2	42.17 ± 3.4	30.06 ± 2.4	23.44 ± 1.9
x1 = 0.7398	1054.9 ± 1.2	1051.3 ± 1.2	1047.9 ± 1.2	1044.4 ± 1.2	62.32 ± 5	43.55 ± 3.5	34.2 ± 2.8
x1 = 0.8496	1080 ± 1.3	1076.5 ± 1.3	1073.1 ± 1.3	1069.8 ± 1.3	101.4 ± 8.3	71.58 ± 5.8	54.87 ± 4.4
x1 = 0.9381	1098.7 ± 1.4	1095.3 ± 1.4	1092.1 ± 1.4	1088.9 ± 1.4	142.89 ± 12	106.41 ± 8.7	82.79 ± 6.7
x1 = 1	1111.1 ± 1.4	1107.8 ± 1.4	1104.7 ± 1.4	1101.6 ± 1.4	185.67 ± 15	140.18 ± 11	110.94 ± 9

From the NIST ThermoML archive (doi:10.1021/acs.jced.9b00507)
